Source: patent US20040209246A1, “Dual reporter/dye reduction methodology for evaluating antiviral and cytotoxicity of hepatitis C virus inhibitors” (Agouron Pharmaceuticals, Inc., priority 2003, published 2004)
Where “and” joins values, the source holds several entries; their conditions need not be identical. Identical values can stand only once. Like-named read-outs stand apart in the source and are kept apart here.

Legend:
[1] = test system: B6b dual reporter replicon cell line (Huh-7); settings: read-out: CC50 (FLuc), three days incubation
Source text: (§1) In the current invention, two end points will be used to measure CC50 values. The first is XTT dye reduction methodology and the second is the use of the second reporter gene integrated in the nucleus of cells carrying the reporter-selectable HCV replicons. In case of both methodologies, a CC50 value will be generated from the same wells from which an EC50 value was obtained. The CC50 value would be generated by calculating % cytotoxicity of the inhibitor/compound treated wells compared to the no inhibitor/compound well resulting in generation of a dose dependent curve to obtain the value that was responsible for the death of 50% of the cells.
(§2) Cell line BB7 M4 hRLuc#10 was grown in DMEM without phenol red (catalog # 1053-028) at 10% FBS with 4 mM L-glutamine, 1×Pen-step, 1×non-essential amino acids, and 200 μg/ml G418 (all from Gibco BRL/Invitrogen). Line B6b was grown in the same media with the addition of 6 μg/ml Blasticidin (ICN Biomedicals). Experiments in these replicon lines were carried out in 96-well black wall, clear-bottom plates (Costar®; Corning Incorporated). Cells were seeded as diagrammed in the figure below at a density of 2×10^4/well in 100 μl DMEM (described above) without G418 or Blasticidin. […]
(§3) Cell line BB7 M4 hRLuc #10 contained the selectable reporter replicon BB7 M4-hRLuc, which served as an anti-viral marker, but cytotoxicity had to be measured by XTT. […]

[2] = test system: reporter-selectable HCV replicon BB7M4hRLuc in B6b Huh-7 cells; assay: HCV replicon hRLuc reporter antiviral assay, dual reporter cell line B6b; format: cell-based, Hepatitis C virus; settings: hRLuc endpoint, three days incubation
Protocol: (§4) An HCV replicon reporter assay system can be developed to determine the specific antiviral activity of inhibitors in standard dose response assays. In such assays, the reporter-selectable containing Huh-7 cells are incubated in 96 wells containing serial dilutions of test inhibitors or no inhibitor. At a specified time after incubation, the activities of the viral-encoded reporter genes are measured in the cell lines using the appropriate reporter assay methodologies. Data from the reporter gene measurements can be expressed as the percent of reporter gene activity in inhibitor-treated cells relative to that of inhibitor-free cells. An analysis of the antiviral component of such data allows for the calculation of the fifty-percent effective concentration (EC50).
(§5) In another embodiment of the invention, the dual antiviral activity/cytotoxicity reporter assay system, in conjunction with recording cytotoxicity in the same wells by the dye reduction method, can be used to determine the specific antiviral activity of inhibitors in standard dose response assays using three endpoints. In such assays, target cells containing the reporter-selectable replicon in microtiter are incubated for a desired duration of time at 37° C. and 5% CO2 with plates containing serial dilutions of test inhibitors or no inhibitor. After the incubation period, the activities of the viral and target cell-encoded reporter genes, as well as cytotoxicity by the dye reduction method, are measured using the appropriate dual reporter assay methods subsequent to the measurement of cellular proliferation by dye reduction. Data from the reporter gene and cellular proliferation measurements can be expressed as the percent of reporter gene activity or optical density (OD) reading in inhibitor-treated cells relative to that of inhibitor-free cells. An analysis of the antiviral component of such data allows for the calculation of the fifty-percent effective concentration (EC50) or ninety-percent effective concentration (EC50) of an inhibitor. In addition, an analysis of the cytotoxicity component of the data can be used to calculate the 50% cytotoxicity concentration (CC50) of an inhibitor. The therapeutic index (TI), which is a measurement of the specific antiviral activity of an inhibitor, can then be calculated by dividing the cytotoxicity (CC50) by the antiviral activity (EC50).

[3] = test system: BB7 M4 hRLuc#10 replicon cell line (Huh-7); assay: XTT dye reduction cytotoxicity, cell line #10; settings: read-out: CC50 (XTT); cell line #10, XTT dye reduction, three days incubation
Source text: as §1, §2, §3

[4] = test system: B6b dual reporter replicon cell line (Huh-7); assay: XTT dye reduction cytotoxicity, cell line B6b; settings: read-out: CC50 (XTT), three days incubation
Source text: as §1, §2, §3

[5] = test system: reporter-selectable HCV replicon BB7M4hRLuc in BB7 M4 hRLuc#10 Huh-7 cells; assay: HCV replicon hRLuc reporter antiviral assay, cell line #10; format: cell-based, Hepatitis C virus; settings: cell line #10, hRLuc endpoint, three days incubation
Protocol: as §4
as §5, with “An analysis of the antiviral component of such data allows for the calculation of the fifty-percent effective concentration (EC50) or ninety-percent effective concentration (EC50) of an inhibitor. In addition, an analysis of the cytotoxicity component of the data can be used to calculate the 50% cytotoxicity concentration (CC50) of an inhibitor.” left out

Compound	CC50 [1]	EC50 ([2]; read-out: EC50)	EC90 ([2]; read-out: EC90)	CC50 [3]	CC50 [4]	EC90 [5]	EC50 ([5]; read-out: EC50)	EC50 [2]	EC90 [2]	EC50 [5]
OC[C@H]1O[C@@H](n2cnc3cc(Cl)c(Cl)cc32)[C@H](O)[C@@H]1O [DRB, 5,6-dichlorobenzimidazole riboside]	85.1 µM and 60.7 µM	34.1 µM and 53.7 µM	43.5 µM and 55 µM	53.6 µM and 48.7 µM	48.7 µM and 40.4 µM	50.2 µM and 58 µM	21.5 µM and 33.2 µM			
interferon alpha [IFN]								0.39 IU/ml and 0.43 IU/ml	2.1 IU/ml and 2.6 IU/ml	0.38 IU/ml and 0.67 IU/ml
